Tests used:
[1] = system: synthesis of LTB4 in human whole blood; experiment: Human whole blood LTB4 production inhibition assay; format: cell-based; settings: calcimycin stimulated, read-out: hWB LTB4 IC50
How it was run: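 Whole-blood cellular format, heparinized human donors: 15 min compound pretreatment, then 30 min calcimycin stimulation (20 μM final), both at 37° C. Low-speed centrifugation yields plasma, in which LTB4 is read by homogeneous time-resolved fluorescence immunoassay.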

[2] = target: recombinant human FLAP protein (Homo sapiens (Human), UniProt P20292); experiment: FLAP binding assay (Scintillation Proximity Assay, displacement of [125I]L-691,831); settings: read-out: FLAP SPA IC50
How it was run: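 Scintillation proximity displacement of an iodinated (125I) FLAP inhibitor by test compounds, using 100,000×g membrane fraction from lysed cells. Final beads 200 μg/well and protein 5 μg/well; plates shaken 2 h before reading.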

Sequence of recombinant human FLAP protein (P20292 whole entry): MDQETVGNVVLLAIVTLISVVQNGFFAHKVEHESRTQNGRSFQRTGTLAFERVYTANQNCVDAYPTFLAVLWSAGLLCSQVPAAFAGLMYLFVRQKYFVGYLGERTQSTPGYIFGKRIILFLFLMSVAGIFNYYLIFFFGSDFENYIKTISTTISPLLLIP

SMILES | IC50 [1] [nM] | IC50 [2] [nM]
Nc1ncc(-c2ccc(C3(c4noc(N5CCC(O)CC5)n4)CCC3)cn2)cn1 [Example 154, 1-(3-{1-[6-(2-Amino-pyrimidin-5-yl)-pyridin-3-yl]-cyclobutyl}-[1,2,4]oxadiazol-5-yl)-piperidin-4-ol] | 590 | 170
Nc1ncc(-c2ccc(C3(c4noc(-c5cnn(CC(=O)NC6CC6)c5)n4)CCC3)cn2)cn1 [Example 155, 2-[4-(3-{1-[6-(2-Amino-pyrimidin-5-yl)-pyridin-3-yl]-cyclobutyl}-[1,2,4]oxadiazol-5-yl)-pyrazol-1-yl]-N-cyclopropyl-acetamide] | 550 | 63
Nc1ncc(-c2ccc(C3(c4noc(-c5cnn(CC(=O)NCC6CCCO6)c5)n4)CCC3)cn2)cn1 (stereo not drawn) [Example 156, 2-[4-(3-{1-[6-(2-amino-pyrimidin-5-yl)-pyridin-3-yl]-cyclobutyl}-[1,2,4]oxadiazol-5-yl)-pyrazol-1-yl]-N-(tetrahydro-furan-2-ylmethyl)-acetamide] | 620 | 97
CC(C)NC(=O)Cn1cc(-c2nc(C3(c4ccc(-c5cnc(N)nc5)nc4)CCC3)no2)cn1 [Example 157, 2-[4-(3-{1-[6-(2-amino-pyrimidin-5-yl)-pyridin-3-yl]-cyclobutyl}-[1,2,4]oxadiazol-5-yl)-pyrazol-1-yl]-N-isopropyl-acetamide] | 560 | 79
CN(CC1CCCO1)C(=O)Cn1cc(-c2nc(C3(c4ccc(-c5cnc(N)nc5)nc4)CCC3)no2)cn1 (stereo not drawn) [Example 159, 2-[4-(3-{1-[6-(2-amino-pyrimidin-5-yl)-pyridin-3-yl]-cyclobutyl}-[1,2,4]oxadiazol-5-yl)-pyrazol-1-yl]-N-methyl-N-(tetrahydro-furan-2-ylmethyl)-acetamide] | 510 | 83
CN(C(=O)Cn1cc(-c2nc(C3(c4ccc(-c5cnc(N)nc5)nc4)CCC3)no2)cn1)C1CC1 [Example 160, 2-[4-(3-{1-[6-(2-amino-pyrimidin-5-yl)-pyridin-3-yl]-cyclobutyl}-[1,2,4]oxadiazol-5-yl)-pyrazol-1-yl]-N-cyclopropyl-N-methyl-acetamide] | 540 | 95
COC1CCN(C(=O)Cn2cc(-c3nc(C4(c5ccc(-c6cnc(N)nc6)nc5)CCC4)no3)cn2)C1 (stereo not drawn) [Example 161, 2-[4-(3-{1-[6-(2-amino-pyrimidin-5-yl)-pyridin-3-yl]-cyclobutyl}-[1,2,4]oxadiazol-5-yl)-pyrazol-1-yl]-1-(3-methoxy-pyrrolidin-1-yl)-ethanone] | 1100 | 250
CCN(C)C(=O)Cn1cc(-c2nc(C3(c4ccc(-c5cnc(N)nc5)nc4)CCC3)no2)cn1 [Example 162, 2-[4-(3-{1-[6-(2-amino-pyrimidin-5-yl)-pyridin-3-yl]-cyclobutyl}-[1,2,4]oxadiazol-5-yl)-pyrazol-1-yl]-N-ethyl-N-methyl-acetamide] | 490 | 130
N#Cc1cc(-c2ccc(C3(c4noc(-c5cnn(C6COC6)c5)n4)CCC3)cn2)cnc1N [Example 167, 6′-Amino-5-{1-[5-(1-oxetan-3-yl-1H-pyrazol-4-yl)-[1,2,4]oxadiazol-3-yl]-cyclobutyl}-[2,3′]bipyridinyl-5′-carbonitrile] | 680 | 140

Compounds with a lower IC50 [1], results first:

IC50 [1] [nM] | IC50 [2] [nM] | SMILES
430 | 160 | CC(C)(C(N)=O)n1cc(-c2nc(C3(c4ccc(-c5cnc(N)nc5)nc4)CCC3)no2)cn1 [Example 149, 2-[4-(3-{1-[6-(2-amino-pyrimidin-5-yl)-pyridin-3-yl]-cyclobutyl}-[1,2,4]oxadiazol-5-yl)-pyrazol-1-yl]-isobutyramide]
370 | 68 | CC(C)(N)Cn1cc(-c2nc(C3(c4ccc(-c5cnc(N)nc5)nc4)CCC3)no2)cn1 [Example 150, 5-[5-(1-{5-[1-(2-amino-2-methyl-propyl)-1H-pyrazol-4-yl]-[1,2,4]oxadiazol-3-yl}-cyclobutyl)-pyridin-2-yl]-pyrimidin-2-ylamine]
300 | 110 | CN(C)C(=O)Cn1cc(-c2nc(C3(c4ccc(-c5ccc(N)nc5)nc4)CCC3)no2)cn1 [Example 163, 2-(4-{3-[1-(6′-amino-[2,3′]bipyridinyl-5-yl)-cyclobutyl]-[1,2,4]oxadiazol-5-yl}-pyrazol-1-yl)-N,N-dimethyl-acetamide]
280 | 73 | CNc1ncc(-c2ccc(C3(c4noc(-c5cnn(CC(C)(C)O)c5)n4)CCC3)cn2)cn1 [Example 165, 2-Methyl-1-[4-(3-{1-[6-(2-methylamino-pyrimidin-5-yl)-pyridin-3-yl]-cyclobutyl}-[1,2,4]oxadiazol-5-yl)-pyrazol-1-yl]-propan-2-ol]
200 | 25 | CC(C)(C#N)Cn1cc(-c2nc(C3(c4ccc(-c5cnc(N)nc5)nc4)CCC3)no2)cn1 [Example 148, 3-[4-(3-{1-[6-(2-amino-pyrimidin-5-yl)-pyridin-3-yl]-cyclobutyl}-[1,2,4]oxadiazol-5-yl)-pyrazol-1-yl]-2,2-dimethyl-propionitrile]
190 | 34 | CC(C)(O)Cn1cc(-c2nc(C3(c4ccc(-c5ccc(N)nc5)nc4)CCC3)no2)cn1 [Example 153, 1-(4-{3-[1-(6′-amino-[2,3′]bipyridinyl-5-yl)-cyclobutyl]-[1,2,4]oxadiazol-5-yl}-pyrazol-1-yl)-2-methyl-propan-2-ol]
170 | 43 | CN(C)C(=O)Cn1cc(-c2nc(C3(c4ccc(-c5cnc(N)cn5)nc4)CCC3)no2)cn1 [Example 164, 2-[4-(3-{1-[6-(5-amino-pyrazin-2-yl)-pyridin-3-yl]-cyclobutyl}-[1,2,4]oxadiazol-5-yl)-pyrazol-1-yl]-N,N-dimethyl-acetamide]
100 | 13 | Nc1ccc(-c2ccc(C3(c4noc(-c5cnn(C6COC6)c5)n4)CCC3)cn2)cn1 [Example 152, 5-{1-[5-(1-oxetan-3-yl-1H-pyrazol-4-yl)-[1,2,4]oxadiazol-3-yl]-cyclobutyl}-[2,3′]bipyridinyl-6′-ylamine]
99 | 33 | CNc1cnc(-c2ccc(C3(c4noc(-c5cnn(C)c5)n4)CCC3)cn2)cn1 [Example 168, Methyl-[5-(5-{1-[5-(1-methyl-1H-pyrazol-4-yl)-[1,2,4]oxadiazol-3-yl]-cyclobutyl}-pyridin-2-yl)-pyrazin-2-yl]-amine]
94 | 18 | CC(C)(C#N)n1cc(-c2nc(C3(c4ccc(-c5cnc(N)nc5)nc4)CCC3)no2)cn1 [Example 151, 2-[4-(3-{1-[6-(2-amino-pyrimidin-5-yl)-pyridin-3-yl]-cyclobutyl}-[1,2,4]oxadiazol-5-yl)-pyrazol-1-yl]-2-methyl-propionitrile]
76 | 50 | COCCn1cc(-c2nc(C3(c4ccc(-c5cnc(N)cn5)nc4)CCC3)no2)cn1 [Example 171, 5-[5-(1-{5-[1-(2-Methoxy-ethyl)-1H-pyrazol-4-yl]-[1,2,4]oxadiazol-3-yl}-cyclobutyl)-pyridin-2-yl]-pyrazin-2-ylamine]
74 | 39 | Cn1cc(-c2nc(C3(c4ccc(-c5cnc(N)cn5)nc4)CCC3)no2)cn1 [Example 174, 5-(5-{1-[5-(1-Methyl-1H-pyrazol-4-yl)-[1,2,4]oxadiazol-3-yl]-cyclobutyl}-pyridin-2-yl)-pyrazin-2-ylamine]

Reference: US8575201B2 (Boehringer Ingelheim International GmbH, priority 2010, dated 2013)
